What was measured:
Assay type in all cases: cell-based, murine
[1] = tested on: iNOS mRNA; experiment: iNOS mRNA Northern blot, IFN-γ-stimulated N9 microglia; details: N9 cells, IFN-γ 200 u ml, 24 h, tranilast 300 μM
Procedure: Tranilast was a generous gift of Kissei Pharmaceuticals (Nagano, Japan). Murine recombinant IFN-γ was purchased from Boehringer (Mannheim, Germany). Dexamethasone (DEX) was obtained from Sigma (Deisenhofen, Germany). N9 murine microglial cells were a kind gift from P. Ricciardi-Castagnoli (Milano, Italy) (Righi, M., Mori, L., De Libero, G., Sironi, M., Biondi, A., Mantovani, A., Donini, S. D. and Ricciardi-Castagnoli, P. Eur J Immunol 19(8):1443-1448, 1989). The cells were cultured in Dulbecco's modified Eagle's medium (DMEM) supplemented with 10% foetal calf serum (FCS), 2 mM glutamine and penicillin ([…])/streptomycin (100 μg ml), and maintained at 37° C. in an atmosphere of 5% CO2. Viability was assessed by crystal violet staining.
Total RNA was isolated using the RNeasy kit (Qiagen, Hilden, Germany). Total RNA ([…]) was separated on 1.2% agarose gels and blotted onto nylon membranes (Amersham). The filters were hybridized according to standard procedures (Platten, M., Wild-Bode, C., Wick, W., Leitlein, J., Dichgans, J., and Weller, M., Int. J. Cancer, 93:53-61, 2001) with a ^32P-labelled murine cDNA probe for iNOS. For the generation of the iNOS probe, N9 cells were stimulated with IFN-γ ([…]) for 24 h. […]

[2] = tested on: iNOS; experiment: iNOS activity by Griess assay (nitrite formation), LPS-stimulated N9 microglia; details: N9 cells, LPS 10 μg/mL, 48 hr, concentration series
Excerpt: (§1) TNL was a generous gift of Kissei Pharmaceuticals, LPC (Escherichia coli, 0127:BS), phorbol 12-myristate 13-acetate (PMA) and dexamethasone (DEX) were obtained from Sigma, BAY 11-7082 (BAY), NF-κB SN50 inhibitory peptide (SN50), GF 109203X (GFX) and rottlerin (ROT) were purchased from Biomol. PD098059 (PD) was obtained from Calbiochem. Purified murine interferon-γ (IFN-γ) was purchased from Roche Diagnostics. N9 murine microglial cells were a kind gift from P. Ricciardi-Castagnoli (Righi, M. et al. 1989 supra). Cells were cultured in Dulbecco's modified Eagle's medium (DMEM) supplemented with 10% fetal calf serum (FCS), 2 mM glutamine, penicillin (100 unit/mL) and streptomycin (100 μg/mL) and maintained at 37° in an atmosphere of 5% CO2. Viability was assessed by crystal violet staining.
iNOS activity was assessed by the Griess assay (Platten, M., Wick, W., Wischhusen, J. and Weller, M. Br J Pharmacol 134(6):1279-1284, 2001). Briefly, conditioned supernatant was incubated with an equal volume of Griess reagent containing 1% sulphanilamide, 0.1% naphthylethylenediamine dihydrochloride and 2.5% H3PO4 (Green, L. C., Wagner, D. A., Glogowski, J., Skipper, P. I., Wishnok, J. S, and Tannenbaum, S. R. Anal. Biochem., 126:131-138, 1982) for 5 min. at room temperature. The absorbance was measured at 546 nm. NaNO2 diluted in DMEM served as a standard. To control for cell number, the cells were stained with crystal violet. iNOS activity is expressed as nitrite accumulated in 48 hr/10^5 cells.

[3] = tested on: ERK-2; experiment: phospho-ERK-1/2 immunoblot, LPS-stimulated N9 microglia: ERK-2; details: N9 cells, LPS 10 μg/mL 10 min
Excerpt: as §1
(§2) For the preparation of whole cell lysates, the cells were lysed in 0.1 M Tris-HCl (pH 7.2) containing 0.1% NP40, 0.1 mM EDTA and 5 μg/mL phenylmethylsulphonyl fluoride. Twenty micrograms protein was separated by 10-12% SDS-PAGE and electroblotted on nitrocellulose membrane. Equal loading was controlled by Ponceau S staining. […]

[4] = tested on: ERK-1; experiment: phospho-ERK-1/2 immunoblot, LPS-stimulated N9 microglia: ERK-1; details: N9 cells, LPS 10 μg/mL 10 min, TNL pre-incubation 1 hr
Excerpt: as §1, §2

[5] = tested on: PKCδ; experiment: PKCδ translocation by immunocytochemistry in N9 microglia; details: N9 cells, PMA 100 nM, TNL 300 μM
Procedure: Cells grown on glass coverslips were serum-starved for 16 hr, kept in Krebs Ringer HEPES buffer (125 mM NaCl, 5 mM KCl, 1.2 mM MgSO4, 2 mM CaCl2, 1.2 mM KH2PO4, 6 mM glucose, 25 mM HEPES, pH 7.4) for 1 hr and left untreated or treated with PMA (100 nM) without or with pre-incubation (1 hr) with TNL (300 μM). After fixation in ice-cold (−20′) methanol for 20 min, the cells were washed with PBS and incubated for 15 min with 0.1% NaBH4 and 0.1 M glycine in PBS to block autofluorescence. Nonspecific antibody binding was blocked for 45 min with PBG (PBS with 0.045% fish gelatin) containing 5% normal goat serum and 1% bovine serum albumin. Incubation with anti-PKCδ antibody was carried out for 24 hr at 4° after dilution in PBG containing 5% normal goat serum. After four washes with PBG, primary antibody binding was detected with an isotype-specific secondary antibody conjugated with Alexa™546 fluorescent dye. The coverslips were mounted in PermaFluor (Immunotech). Localization of the proteins was examined using confocal laser microscopy (Leica).

COc1ccc(/C=C/C(=O)Nc2ccccc2C(=O)O)cc1OC [tranilast, 2-[[3-(3,4-dimethoxyphenyl)-1-oxo-2-propenyl]amino]benzoic acid]
IFN-γ-induced iNOS mRNA expression [1]: greatly suppressed | nitrite formation after LPS [2]: concentration-dependent decrease | reduction of phospho-ERK-2 (densitometry) ([3]; 300 μM TNL): 80% | ERK-2 phosphorylation after LPS ([3]; TNL pre-incubation 1 hr, concentration series): concentration-dependent inhibition | phospho-ERK-1 protein level after LPS [4]: remained unchanged | PMA-induced translocation of PKCδ from cytosol to nucleus [5]: abolished

From patent US7531575B2, “Method of modulating cellular activity and agents useful for same” (Eberhard-Karls-Universität Tübingin, priority 2002, dated 2009)
